Laboratory results published in paper PMC12731536, “Sc(III) Complexes of Pyclen Derivative Ligands as Probes for Hypoxia: Synthesis, Chemical Characterization, ^44Sc‐Radiolabeling, and Preclinical Assessment” (Chemistry (Weinheim an Der Bergstrasse, Germany), 2025).
Where two headings read alike, the source gives them in different places. One block for each compound: values may come before it.

Experiments:
[1] = I = 0.15 M NaCl, T = 25 °C; cited from earlier work
[2] = pH‐potentiometric determination of ligand protonation constants; format: physicochemical; conditions: I = 0.15 M NaCl, T = 25 °C
Protocol: The equilibrium study of the PC2AM^nBu ligand has been started by determining the protonation constants in 0.15 M and 1.00 M NaCl ionic strength. (As the stability of the Sc(III) complex was determined in 1.00 M ionic strength, we had to perform the pH‐potentiometric titration of ligands using 1.00 M ionic strengths also.) The results of pH‐potentiometric measurement are shown in Table 1, where the corresponding data for 3,9‐PC2A,^[ [42] ^] PCTA ^[ [46] ^] and PC2AM‐NI ligands determined under identical conditions are also presented. Knowledge of the protonation constants defined by Eqn. 1 and 2 are essential for the calculation of the stability constants of the Sc(III) complexes:
(1) PC2AM^nBu^2−+nH^+⇌Hn(PC2AM^nBu)^−2+n (2) βn=HnPC2AM^nBu^−2+n/PC2AM^nBu^2−H^+^n
The protonation constants of the ligands, as well as the concentrations of the ligand stock solutions, were determined by pH‐potentiometric method using a Metrohm 785 DMP Titrino automatic titrator using a Metrohm 6.00234.100 combined glass electrode. The titrations were carried out in the pH range 1.75–11.80 and the pH electrode was calibrated by a two‐point calibration routine with the use of 0.05 M KH‐phthalate (pH = 4.005) and 0.01 M borax (pH = 9.177 buffers. The samples were stirred at 25 °C (±0.1 °C) and N2 gas bubbled into the system to ensure inert conditions and to eliminate the effect of the presence of CO2. For the calculation of [H^+] from the measured pH values, the method proposed by Irving et al. was applied.^[ [61] ^] For this, a 0.01 M HCl solution was titrated with the standardized NaOH solution in the presence of 0.15 M NaCl ionic strength at 25 °C. The differences between the measured (pHread) and calculated pH (‐log[H^+]) values were used to obtain the equilibrium H^+ concentration from the pHmeas values during the titrations. By fitting the resulting titration curves (pH – V (NaOH) data pairs) with the PSEQUAD program, the protonation constants of the ligands were determined.^[ [47] ^] The titration of the [Sc(PC2AM^nBu)]^+ with NaOH was performed with the same method by applying very similar conditions.

[3] = system: B16‐F10 tumor‐bearing C57BL/6 mice; test: In vivo PET studies (MiniPET‐II); conditions: n = 5
Source text: The B16‐F10 mouse melanoma cell line (MC1‐R positive) was the kind gift of the Department of Immunology, Faculty of Medicine, University of Debrecen (Debrecen, Hungary). The cells were routinely cultivated according to the manufacturer's protocols using Dulbecco's Modified Eagle's medium (DMEM, Merck Life Science Ltd., Budapest, Hungary) supplemented with 1% (v/v) MEM Non‐Essential Amino Acid solution (Merck Life Science Ltd.), 1% MEM Vitamins solution (Merck Life Science Ltd.), 10% Fetal Bovine Serum (FBS, GIBCO Life Technologies, Billings, MT, USA), and 1% Antibiotic and Antimicotic solution (Merck Life Science Ltd.) at 37 °C in a humidified atmosphere containing 5% CO2. For tumor induction the cells were used at 85% confluence. Cell viability was determined by applying trypan blue exclusion assay. Those cells were used for subsequent experiments where the staining confirmed that more than 90% of them were viable.
(§1) All animal experiments confirmed to all applicable sections of the Hungarian Laws and the directions and regulations of the European Union, and the in vivo studies have been ethically approved by the Ethics Committee for Animal Experimentation of the University of Debrecen (license number: 16/2020/DEMÁB). C57BL/6 male mice (n = 32, older than 12 weeks, approx. 20 grams) obtained from Charles River Animalab Ltd. (Budapest, Hungary) were used for in vivo PET studies and biodistribution assays. To induce tumor models, 20 mice were subcutaneously transplanted with approximately 3x10^6 tumor cells (in 100 µL physiological saline) at the left shoulder area. Tumor growth was regularly monitored by using caliper measurements. During tumor generation inhalation anesthesia was induced using 3% isoflurane (Forane, AbbVie, Chicago, IL, USA), 0.4 L/min O2, and 0.8 L/min N2O.
Preclinical PET studies were performed on the MiniPET‐II scanner of the Department of Nuclear Medicine and Translational Imaging, Institute of Medical Imaging, Faculty of Medicine, University of Debrecen (Debrecen, Hungary). Fourteen days post tumor induction, tumor‐bearing mice (n = 20) were anesthetized (see above) and tail vein injected with approximately 5–7 MBq of [^44Sc][Sc(PC2AM‐NI)]^+ or [^44Sc][Sc(PC2A‐Ph‐NI)]^+. After a 90 ‐ and a 240‐minutes awake incubation period, the mice were re‐anesthetized and 20‐minutes static PET scans were taken. To quantify radiopharmaceutical uptake, followed by image reconstruction (3D ordered‐subsets expectation‐maximization algorithm (3D‐OSEM)), volumes of interest (VOIs) were manually outlined on the tumors and on the hindlimb muscle tissue as a reference region. Using a dedicated imaging analysis software: BrainCAD image analysis software (version: 1.12‐bulid3), mean standardized uptake values (SUVmean) were determined with the following equation: SUV = [VOI activity (Bq/mL)]/[injected activity (Bq)/animal weight (g)]. To assess image contrast, tumor‐to‐off‐target ratios (tumor‐to‐muscle ratio/T/M) were also calculated.

[4] = system: healthy control and B16‐F10 melanoma cell‐bearing mice; test: Ex vivo biodistribution studies; format: in vivo; conditions: for B16‐F10 tumor uptake: 14 days after cancer cell inoculation, n = 5 tumor‐bearing mice
Source text: as §1
To evaluate the organ distribution of the novel ^44Sc‐labeled radiotracers, ex vivo biodistribution experiments were additionally performed. Healthy control and tumor‐bearing mice were administered with approximately 5–7 MBq of [^44Sc][Sc(PC2AM‐NI)]^+ or [^44Sc][Sc(PC2A‐Ph‐NI)]^+ and at 90 ‐ and 240‐minutes post injection, all of them were put to death. Organs and tissues of interest were collected, weighed wet, and γ‐counted (Perkin‐Elmer Packard 406 Cobra, Waltham, MA, USA). After decay correction, the radioactivity of each tissue and organ was calculated as %ID/g.

SMILES: O=C(O)CN1CCNCCN(CC(=O)O)Cc2cccc(n2)C1 [3,9‐PC2A]
- log K 1 ^H [1]: 12.25
- log K 2 ^H [1]: 5.97
- log K 3 ^H [1]: 3.47
- log K 4 ^H [1]: 1.99
- log β 2 ^H [1]: 18.22

- log K 1 ^H [2]: 8.60(3)
- log K 2 ^H [2]: 7.39(3)
- log K 3 ^H [2]: 2.28(3)
- log K 4 ^H [2]: 1.58(3)
- log β 2 ^H [2]: 15.99
SMILES: O=C(O)CN1CCN(CC(=O)NCCCCCCn2ccnc2[N+](=O)[O-])CCN(CC(=O)O)Cc2cccc(n2)C1 [PC2AM‐NI]

- muscle SUVmean ([3]; 90 minutes post injection): 0.02 ± 0.01
- muscle SUVmean ([3]; 240 minutes post injection): 0.01 ± 0.01
- Blood uptake ([4]; 90 minutes post injection): 0.09 ± 0.02 %ID/g
- Bone uptake ([4]; 90 minutes post injection): 0.02 ± 0.00 %ID/g
- Brain uptake ([4]; 90 minutes post injection): 0.01 ± 0.01 %ID/g
- Fat uptake ([4]; 90 minutes post injection): 0.05 ± 0.02 %ID/g
- Heart uptake ([4]; 90 minutes post injection): 0.04 ± 0.01 %ID/g
- Kidney uptake ([4]; 90 minutes post injection): 0.83 ± 0.29 %ID/g
- Liver uptake ([4]; 90 minutes post injection): 1.55 ± 1.66 %ID/g
- Lung uptake ([4]; 90 minutes post injection): 0.10 ± 0.02 %ID/g
- Muscle uptake ([4]; 90 minutes post injection): 0.02 ± 0.00 %ID/g
- Pancreas uptake ([4]; 90 minutes post injection): 0.04 ± 0.02 %ID/g
- Spleen uptake ([4]; 90 minutes post injection): 0.07 ± 0.02 %ID/g
- Stomach uptake ([4]; 90 minutes post injection): 0.09 ± 0.02 %ID/g
- Urine activity ([4]; 90 minutes post injection): 77.19 ± 37.26 %ID/g
- gall bladder uptake ([4]; 90 minutes post injection): 42.46 ± 33.31 %ID/g
- large intestines uptake ([4]; 90 minutes post injection): 0.10 ± 0.07 %ID/g
- salivary gland uptake ([4]; 90 minutes post injection): 0.03 ± 0.00 %ID/g
- small intestines uptake ([4]; 90 minutes post injection): 0.92 ± 0.33 %ID/g
- B16‐F10 tumor uptake ([4]; 90 minutes post injection): 0.27 ± 0.07 %ID/g
- Blood uptake ([4]; 240 minutes post injection): 0.02 ± 0.01 %ID/g
- Bone uptake ([4]; 240 minutes post injection): 0.01 ± 0.00 %ID/g
- Brain uptake ([4]; 240 minutes post injection): 0.01 ± 0.00 %ID/g
- Fat uptake ([4]; 240 minutes post injection): 0.01 ± 0.00 %ID/g
- Heart uptake ([4]; 240 minutes post injection): 0.01 ± 0.00 %ID/g
- Kidney uptake ([4]; 240 minutes post injection): 0.60 ± 0.37 %ID/g
- Liver uptake ([4]; 240 minutes post injection): 0.90 ± 1.01 %ID/g
- Lung uptake ([4]; 240 minutes post injection): 0.03 ± 0.01 %ID/g
- Pancreas uptake ([4]; 240 minutes post injection): 0.01 ± 0.00 %ID/g
- Spleen uptake ([4]; 240 minutes post injection): 0.03 ± 0.02 %ID/g
- Stomach uptake ([4]; 240 minutes post injection): 0.04 ± 0.03 %ID/g
- Urine activity ([4]; 240 minutes post injection): 5.44 ± 1.23 %ID/g
- gall bladder uptake ([4]; 240 minutes post injection): 15.82 ± 13.89 %ID/g
- large intestines uptake ([4]; 240 minutes post injection): 0.12 ± 0.12 %ID/g
- salivary gland uptake ([4]; 240 minutes post injection): 0.01 ± 0.01 %ID/g
- small intestines uptake ([4]; 240 minutes post injection): 0.20 ± 0.10 %ID/g
- B16‐F10 tumor uptake ([4]; 240 minutes post injection): 0.17 ± 0.07 %ID/g
SMILES: O=C([O-])CN1CCN(CC(=O)NCCCCCCn2ccnc2[N+](=O)[O-])CCN(CC(=O)[O-])Cc2cccc(n2)C1.[44Sc+3] [[^44Sc][Sc(PC2AM‐NI)]^+]
- B16‐F10 SUVmean ([3]; 90 minutes post injection): 0.08 ± 0.02
- T/M ratio (tumor‐to‐muscle) ([3]; 90 minutes post injection): 4.04 ± 0.02
- B16‐F10 SUVmean ([3]; 240 minutes post injection): 0.04 ± 0.02
- T/M ratio (tumor‐to‐muscle) ([3]; 240 minutes post injection): 4.02 ± 0.02
